Test results published in patent US7183095B2, “Cell culture system for synthesis of infectious hepatitis C virus” (priority 2001, dated 2007).

System: HCV type 1a (pCV-H77C) in Huh-7 cells
Assay: Cell surface expression of HCV envelope proteins E1 and E2 by flow cytometry (FACS) in transfected Huh-7 cells
Format: cell-based, hepatitis C virus
Conditions: Huh-7 cells transfected with type 1a pCVH77C and AR3126, interferon treatment
Description: Transfected or supernatant treated Huh-7 cells were stained with anti-E1 or anti-E2 antibodies using procedures similar to those described previously by Koka et al. A goat anti-mouse IgG1 antibody conjugated to PE was used for labeling of the primary antibody. Flow cytometric analyses were performed on a Becton-Dickinson FACSCAN.
Huh-7 cells (1×10^7) were transfected/co-transfected with plasmid DNA at 60–70% confluency in T-75 tissue culture flasks. In some experiments transfection was carried out in 6-well plates (3×10^6 cells per well and 2 μg of each plasmid). Ten μgs of each plasmid was added to 0.45 ml of serum-free RPMI and mixed with 180 μl of superfect transfection reagent from Quiagen. The mixture was incubated at room temperature for 10 min after which 3 ml of RPMI containing 10% fetal bovine serum was then added. The mixture was then layered on Huh-7 cells and incubated at 37° C. for 6 h. The cell culture medium was changed regularly until the cells were harvested for labeling with appropriate antibodies or RNA isolation.
Viral protein synthesis was monitored by assaying cell surface expression of viral envelope proteins E1 and E2 by fluorescent activated cell sorting (FACS). Cell surface expression of HCV E1 and E2 was determined by flow cytometry following a procedure as previously described. […]

gamma: interferon gamma was tested, and the E1/E2 expression was “inhibited E1/E2 expression only marginally”.
